This passage reports inhibition results from ChEMBL document CHEMBL3603775, “Design, synthesis and evaluation of benzotriazole derivatives as novel antifungal agents” (Bioorg Med Chem Lett, 2015).

The target in assay [1] is T1, Lanosterol 14-alpha demethylase (Candida albicans (strain SC5314 / ATCC MYA-2876) (Yeast), UniProt P10613). Put plainly: Inhibition of Candida albicans lanosterol 14-alpha demethylase assessed as reduction of ergosterol biosynthesis at 10 ug/ml after 18 hrs by UV spectroscopy analysis.
T1 sequence (P10613 whole entry): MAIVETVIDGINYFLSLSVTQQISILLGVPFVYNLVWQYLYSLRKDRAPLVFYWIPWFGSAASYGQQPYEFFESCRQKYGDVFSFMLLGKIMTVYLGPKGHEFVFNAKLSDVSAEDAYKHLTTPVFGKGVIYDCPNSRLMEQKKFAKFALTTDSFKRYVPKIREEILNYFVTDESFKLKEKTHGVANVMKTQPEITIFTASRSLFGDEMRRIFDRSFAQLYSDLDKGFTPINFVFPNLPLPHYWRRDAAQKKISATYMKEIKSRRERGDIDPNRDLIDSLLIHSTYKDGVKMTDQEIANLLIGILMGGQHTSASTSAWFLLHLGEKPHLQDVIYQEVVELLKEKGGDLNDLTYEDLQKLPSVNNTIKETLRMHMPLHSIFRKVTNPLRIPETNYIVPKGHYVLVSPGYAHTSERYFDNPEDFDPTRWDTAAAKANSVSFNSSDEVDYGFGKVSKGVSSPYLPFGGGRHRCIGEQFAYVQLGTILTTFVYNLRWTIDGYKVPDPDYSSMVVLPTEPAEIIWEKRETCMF
In assay [2] the test system is Candida albicans. Briefly: Antifungal activity against Candida albicans ATCC 10231 at 100 ug/ml after 48 hrs by cup plate method. The following applies: ATCC 10231, 48 h. It counts as functional.
The target in assay [3] is T1, Lanosterol 14-alpha demethylase. Briefly: Inhibition of Candida albicans lanosterol 14-alpha demethylase assessed as reduction of ergosterol biosynthesis at 100 ug/ml after 18 hrs by UV spectroscopy analysis.
Assay [4] concerns Candida albicans. Briefly: Antifungal activity against Candida albicans ATCC 10231 at 10 ug/ml after 48 hrs by cup plate method. The format is functional. The following applies: ATCC 10231, 48 h.
Assay [5] deals with T1, Lanosterol 14-alpha demethylase. Put plainly: Inhibition of Candida albicans lanosterol 14-alpha demethylase assessed as reduction of ergosterol biosynthesis at 50 ug/ml after 18 hrs by UV spectroscopy analysis.
Assay [6] relates to Candida albicans. Put plainly: Antifungal activity against Candida albicans ATCC 10231 at 50 ug/ml after 48 hrs by cup plate method. It counts as functional. The following applies: ATCC 10231, 48 h.

SMILES strings stand for the structures.

In the case of `c1ccc(CNCc2ccc3[nH]nnc3c2)cc1`, the inhibition (in general, the change of the read-out against control, counted positive when it falls) at 10 µg/mL in assay [1] was 46.5%; with Candida albicans [4], 12.5%. In addition, the results for the inhibition at 100 µg/mL (with Candida albicans [2]; in assay [3]) were 67.7% and 66%, respectively. The inhibition at 50 µg/mL came to 48.5% in assay [5] and 27.4% in the assay with Candida albicans [6].
Consider `Cc1ccccc1NCc1ccc2[nH]nnc2c1`, for which the inhibition at 10 µg/mL worked out at 49.9% in assay [1] and 0% in the assay with Candida albicans [4]. Further, the inhibition at 100 µg/mL in the assay on Candida albicans [2] came out at 67.7%; in assay [3], 65.8%. Further, the inhibition at 50 µg/mL stood at 65.8% in assay [5] and 34.2% in the assay with Candida albicans [6].
As to `Cc1ccccc1OCc1ccc2[nH]nnc2c1`, the inhibition at 10 µg/mL came out at 50.5% in assay [1] and 0% in the assay with Candida albicans [4]. Also, the inhibition at 100 µg/mL was found to be 66.1% in the assay with Candida albicans [2] and 54.4% in assay [3]. Further, the figures for the inhibition at 50 µg/mL (in assay [5]; with Candida albicans [6]) were 54% and 36.4%, respectively.
As for `CCCCNCc1ccc2[nH]nnc2c1`, the inhibition at 10 µg/mL stood at 1.55% in assay [1] and 12.5% in the assay on Candida albicans [4]. In addition, the inhibition at 100 µg/mL with Candida albicans [2] was 64.3%; in assay [3], 47.8%. Also, the figures for the inhibition at 50 µg/mL (in assay [5]; with Candida albicans [6]) were 45.5% and 30%, respectively.
As for `Cc1ccccc1NC(=O)c1ccc2[nH]nnc2c1`, the inhibition at 10 µg/mL turned out to be 12.6% in assay [1] and 4.16% in the assay with Candida albicans [4]. Further, the inhibition at 100 µg/mL in the assay with Candida albicans [2] stood at 58.4%; in assay [3], 42.5%. For the same compound, the results for the inhibition at 50 µg/mL (in assay [5]; in the assay with Candida albicans [6]) were 35.7% and 23.7%, respectively.
Consider `O=C(NCc1ccccc1)c1ccc2[nH]nnc2c1`, for which the inhibition at 10 µg/mL in assay [1] was found to be 15.9%; in the assay with Candida albicans [4], 4.16%. Moreover, the inhibition at 100 µg/mL was determined as 54.1% in the assay on Candida albicans [2] and 41.3% in assay [3]. Moreover, the inhibition at 50 µg/mL in assay [5] amounted to 33.1%; in the assay with Candida albicans [6] it was 28.5%.
For the compound `CCCCNC(=O)c1ccc2[nH]nnc2c1`, the inhibition at 10 µg/mL in assay [1] came out at 7.91%; with Candida albicans [4] it was 4.16%. Further, the values for the inhibition at 100 µg/mL (in the assay on Candida albicans [2]; in assay [3]) were 54.3% and 38.1%, respectively. Moreover, the inhibition at 50 µg/mL in assay [5] amounted to 22.7%; in the assay with Candida albicans [6] it was 27.4%.
For `Cc1ccccc1NCn1nnc2ccccc21`, the inhibition at 10 µg/mL in assay [1] turned out to be 11.6%; with Candida albicans [4] it was 0%. Also, the inhibition at 100 µg/mL in the assay with Candida albicans [2] came out at 50.2%; in assay [3], 31.3%. Also, the results for the inhibition at 50 µg/mL (in assay [5]; in the assay with Candida albicans [6]) were 29.4% and 4.16%, respectively.
As for `OC(Cn1cncn1)(Cn1cncn1)c1ccc(F)cc1F` [FLUCONAZOLE], the inhibition at 10 µg/mL came out at 45.5% in assay [1] and 12.5% with Candida albicans [4]. The results for the inhibition at 100 µg/mL (in the assay with Candida albicans [2]; in assay [3]) were 65.5% and 51.2%, respectively. In addition, the inhibition at 50 µg/mL in assay [5] is 47.7%; in the assay with Candida albicans [6], 30%.
